Reference: publication PMC7297381, “Potent, specific MEPicides for treatment of zoonotic staphylococci” (PLoS Pathogens, 2020)
Read-outs that look alike come from different tables or passages of the source.

How the values were obtained:
S. schleiferi DXR enzyme = S. schleiferi DXR enzyme (Staphylococcus schleiferi, UniProt A0ABF7SXB4); assay: S. schleiferi DXR enzyme activity and inhibition (NADPH oxidation at 340 nm); format: biochemical
Protocol: . The sequence was confirmed by Sanger sequencing and the plasmid was transformed into E. coli BL21(DE3) pLysS (Life Technologies). Gene expression was induced for 2 h with 1 mM isopropyl-β-D-thiogalactoside (IPTG) and cells were harvested by centrifugation at 4274 x g for 10 min at 4°C. The cell pellet was lysed by sonication in lysis buffer containing 25 mM Tris HCl (pH 7.5), 100 mM NaCl, 20 mM imidazole, 10% glycerol, 1 mM MgCl2, 1 mM dithiothreitol (DTT), 1 mg/mL lysozyme, 75 U benzonase and 1 Complete Mini EDTA-free protease inhibitor tablet (Roche Applied Science). The hexahistidine-tagged DXR protein was affinity purified from soluble lysate via nickel agarose beads (Gold Biotechnology). Bound protein was eluted in 300 mM imidazole, 25 mM Tris HCl (pH 7.5), 1 mM MgCl2 and 100 mM NaCl. Purified protein was dialyzed in buffer containing 10% glycerol without imidazole prior to analysis. The enzyme was frozen in liquid nitrogen and stored permanently at -80°C.
Oxidation of NADPH to NADP^+ as a result of substrate turnover was monitored at 340 nm in a POLARstar Omega microplate reader (BMG Labtech)[73]. […] Reactions were initiated by the addition of DOXP after 15 min incubation of the reaction mixture without DOXP at 37°C. Absorption at 340 nm was measured continuously for up to 45 min. For Km [DOXP] determination, DOXP concentrations between 0 and 2 mM were tested at 0.5 mM NADPH. The linear range of enzyme activity was determined by varying the DXR concentration at 1 mM DOXP and 1 mM NADPH. IC50 assays were performed using the standard reaction conditions with the respective amount of DXR inhibitor added to obtain the given final concentrations. Data points from at least three independent replicates were analyzed by nonlinear regression using GraphPad Prism software. Slopes of changing absorbance values were converted to (μM DOXP)(mg enzyme)^-1 s ^-1 using a NADPH standard curve (data not shown). For the determination of the inhibitory constant Ki [FSM] of DXR, enzyme activity over a range of DOXP substrate concentrations between 0 and 2 mM was measured for FSM between 0 mM to 4 mM. Data points from at least three independent replicates were analyzed as described above.

S. aureus = assay: Growth inhibition assay of Staphylococcus species (OD600, 20 h); settings: Staphylococcus aureus, read-out: S. aureus IC50
Protocol: (§1) Overnight cultures were diluted 1:200 in LB media and grown at 37°C until the mid-logarithmic phase (OD600 = 0.5–0.8). Cultures were diluted in a 96-well plate to 1 x 10^5 in 150 μL LB media and treated with inhibitors at concentrations ranging from 2 nM to 100 μM. Bacteria were grown at 37°C for 20 h with cyclic shaking at 700 rpm in a FLUOstar Omega microplate reader (BMG Labtech). Growth was assessed over 20 h by measuring the OD600 at 20 min increments. The half-maximal inhibitory concentration (IC50) values were determined during logarithmic growth using GraphPad Prism software. All experiments were performed at least in triplicate and data reported represent the mean ± SEM.

S. schleiferi [1] = assay: as above; settings: read-out: S. schleiferi IC50
Protocol: as §1

S. pseudintermedius = assay: as above; settings: read-out: S. pseudintermedius IC50
Protocol: as §1

HepG2 cells = test system: HepG2 cells; parameters: method as in PMID 28827774, PMID 30192536; settings: previous work ref [42], [53]; read-out: IC50 against HepG2 cells; cited from earlier work
[2] = test system: Burkholderia thailandensis; assay: microbe, parasite or virus in culture; format: cell-based; settings: read-out: Burkholderia thailandensis IC50
Escherichia coli = assay: microbe, parasite or virus in culture; format: cell-based
Salmonella typhimurium = assay: Growth inhibition assay for Gram-negative bacteria; format: cell-based; settings: Salmonella enterica, strain 04-018-0254, mean ± SD
Klebsiella pneumoniae = assay: Growth inhibition assay for Gram-negative bacteria; format: cell-based
Serratia marcescens = assay: Growth inhibition assay for Gram-negative bacteria; format: cell-based; settings: strain 137.01, mean ± SD
Shigella sonnei = assay: microbe, parasite or virus in culture; format: cell-based; settings: mean ± SD
S. schleiferi [3] = assay: MIC by microtiter broth dilution, wild-type and FSM-resistant strains; settings: strains 3408, 4494, 7376, 8400
Protocol: Minimum Inhibitory Concentration (MIC) assays were conducted by microtiter broth dilution in clear 96-well plates[78]. MEPicides were serially diluted in duplicate at concentrations ranging from 1.5 mM– 19.5 nM in 75 μL of LB broth. Bacteria cultured without drug were used as a positive control for growth. The plates were inoculated with 75 μL bacteria diluted to 1 x 10^5 CFU/mL in LB. Plates were incubated for 18–20 h while shaking at 200 RPM at 37°C. The plates were then visually inspected, and the MIC value was defined as the lowest concentration of MEPicide that prevented visual growth.

Chain of S. schleiferi DXR enzyme (A0ABF7SXB4 entry or part of it): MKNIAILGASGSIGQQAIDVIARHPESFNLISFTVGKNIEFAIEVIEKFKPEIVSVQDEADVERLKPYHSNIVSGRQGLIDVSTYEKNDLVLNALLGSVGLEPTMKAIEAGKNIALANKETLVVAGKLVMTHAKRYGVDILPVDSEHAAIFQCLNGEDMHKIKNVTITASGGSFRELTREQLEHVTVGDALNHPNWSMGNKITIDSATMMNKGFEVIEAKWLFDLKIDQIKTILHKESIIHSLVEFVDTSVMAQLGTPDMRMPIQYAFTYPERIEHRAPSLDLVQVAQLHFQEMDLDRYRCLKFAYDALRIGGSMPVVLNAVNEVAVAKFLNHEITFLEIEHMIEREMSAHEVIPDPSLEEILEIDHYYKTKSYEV

SMILES: CC(=O)N(O)C/C=C/P(=O)(O)O [Compound 1]
- IC50 (S. schleiferi DXR enzyme): 3.31 ± 1.02 µM
- IC50 (S. aureus): > 100 µM
- IC50 (S. schleiferi [1]): 55.5 ± 2.41 µM
- IC50 (S. pseudintermedius): 54.5 ± 1.14 µM

SMILES: CC(=O)N(O)C/C=C/P(=O)(OCOC(=O)C(C)(C)C)OCOC(=O)C(C)(C)C [Compound 2]
- IC50 (HepG2 cells): > 100 µM
- IC50 [2]: > 100 µM
- inhibition of purified recombinant S. schleiferi DXR in vitro (S. schleiferi DXR enzyme; prodrug, uncleaved): poorly inhibit
- IC50 (S. schleiferi DXR enzyme; purified recombinant enzyme, mean ± SEM, read-out: S. schleiferi DXR enzyme IC50): > 100 µM
- inhibition of growth of E. coli (Escherichia coli): does not inhibit growth
- IC50 (Escherichia coli; Escherichia coli, BW25113, mean ± SD): > 1000 µM
- IC50 (S. aureus): > 100 µM
- IC50 (Salmonella typhimurium): > 100 µM
- inhibition of growth of Klebsiella pneumoniae (Klebsiella pneumoniae): does not inhibit growth
- IC50 (Klebsiella pneumoniae; Klebsiella pneumoniae, ATCC43816, ATCC 43816, mean ± SD): > 100 µM
- IC50 (Serratia marcescens): > 100 µM
- IC50 (Shigella sonnei): > 100 µM
- sensitivity of FSM^R glpT mutant S. schleiferi strains (MIC fold change vs WT) (S. schleiferi [3]): remain sensitive
- IC50 (S. schleiferi [1]): 0.1 ± 0.01 µM
- IC50 (S. pseudintermedius): 0.26 ± 0.03 µM

SMILES: O=CN(O)C/C=C/P(=O)(O)O [Compound 3]
- IC50 (HepG2 cells): > 50 µM
- IC50 (S. schleiferi DXR enzyme): 0.41 ± 0.11 µM
- IC50 (S. aureus): > 100 µM
- sensitivity of FSM^R glpT mutant S. schleiferi strains (MIC fold change vs WT) (S. schleiferi [3]): cross-resistant
- IC50 (S. schleiferi [1]): 4.17 ± 0.47 µM
- IC50 (S. pseudintermedius): 4.31 ± 0.51 µM
